Results reported in patent publication US12059682B2, “Method for isolation and morphological analysis of cells” (EzDiaTech Inc., priority 2018, dated 2024).
In brackets after ≈: the same amount, converted by molar mass.

Experiments:
[1] = system: Escherichia coli (E. coli) ATCC 25922; assay: Rapid antibiotic susceptibility test with microwell-patterned hydrogel in 96 well plate, time-lapse imaging; type: cell-based
Description: (§1) FIG. 2 is a schematic diagram illustrating a technique for dissociating cell colonies into cells at the level of individual cells and continuously observing the morphological changes of the isolated single cells by utilizing a hydrogel structure according to one embodiment of the present disclosure. Referring to (a) of FIG. 2, a conventional 96 well plate is prepared, and thereafter, a dried microwell-patterned hydrogel is inserted into each well. Referring next to (b) of FIG. 2, a cell culture medium containing bacterial cells, nutrients and antibiotics is introduced into each well containing the dry microwell-patterned hydrogel. At the initial stage of introduction, the bottom microwells of the microwell-patterned hydrogel are not yet seated on the base of the well and the microwell-patterned hydrogel is slightly floating. Thus, the bacterial cells are free to move in and out of each microwell pattern.
(§2) Referring to (c) of FIG. 2, several or tens of minutes after the introduction, the microwell-patterned hydrogel swells and approaches the inner wall of the well. As a result, the top of the microwell-patterned hydrogel is in close contact with the inner sidewall of the well and the bottom of the microwell-patterned hydrogel is seated on and remains attached to the base of the well. At this time, the individual bacterial cell entering the space of each bottom microwell pattern of the microwell-patterned hydrogel is not free to move any further in and out of the microwell pattern and is isolated in the microwell-patterned area due to the pressure of the swollen hydrogel. In a state in which the hydrogel is fully expanded, continuous bacterial morphological changes can be observed after several hours by time-lapse imaging through an objective lens of the optical measurement system. As a result, time-lapse images of the individual bacterial cells can be obtained.
(§3) In the case of the Streptomyces atratus (spore-type actinomycetes) cultures, the final cell concentration of the wells was controlled at 7.5×10^7 CFU/mL with tryptic soy broth (TSB, Sparks, MD) and growth was at 28° C. […] After that, 227.5 μL (91% v/v) of Mueller-Hinton broth (MHB, Fluka Analytical), 2.5 μL (1% v/v) of the antibiotics, and 20 μL (8% v/v) of bacterial cells were mixed and growth was monitored at 37° C.
(§4) In this example, the Clinical Laboratory Standard Institute (CLSI) standard strains, Escherichia coli (E. coli) ATCC 25922 and Staphylococcus aureus (S. aureus) ATCC 29213 were tested with various concentrations of ampicillin and chloramphenicol to determine the minimum inhibitory concentration (MIC) values of the antibiotics. […] The cell growth images were recorded every hour for four hours to observe the change in cell number and morphological change to indicate growth.

[2] = system: Staphylococcus aureus (S. aureus) ATCC 29213; assay: as above; type: cell-based
Description: as §1, §2, §3, §4

E. coli ATCC 25922 = settings: cited from earlier work
S. aureus ATCC 29213 = settings: cited from earlier work
[3] = system: methicillin-resistant Staphylococcus aureus (MRSA); assay: Rapid antibiotic susceptibility test with microwell-patterned hydrogel structures, running time 4 hours; type: cell-based; settings: rapid method, running time 4 hours, read-out: minimum inhibitory concentration (MIC)
Description: In the case of the Streptomyces atratus (spore-type actinomycetes) cultures, the final cell concentration of the wells was controlled at 7.5×10^7 CFU/mL with tryptic soy broth (TSB, Sparks, MD) and growth was at 28° C. For the E. coli ATCC 25922, Staphylococcus aureus ATCC 29213, and methicillin resistant Staphylococcus aureus cultures, the initial concentration of bacterial cells injected into each well was set to 3×10^8 CFU/mL with Mueller-Hinton broth (MHB, Fluka Analytical). In order to adjust the concentration of antibiotics, ampicillin (Sigma-Aldrich) and chloramphenicol (Sigma-Aldrich), a two-fold serial dilution method was used. After that, 227.5 μL (91% v/v) of Mueller-Hinton broth (MHB, Fluka Analytical), 2.5 μL (1% v/v) of the antibiotics, and 20 μL (8% v/v) of bacterial cells were mixed and growth was monitored at 37° C.

[4] = system: methicillin-resistant Staphylococcus aureus (MRSA); assay: Conventional antibiotic susceptibility test using turbidity, running time 18-24 hours; type: cell-based; settings: conventional method using turbidity, running time 18-24 hours, read-out: minimum inhibitory concentration (MIC)
Description: Although numerous AST approaches have been studied, molecular and cell culturing systems are typical. The molecular AST method can obtain results quickly, in just a few hours, but can be adopted only in restrictive conditions with analytical equipment such as PCR machine and requires much more research to be used widely in clinical applications. In contrast with the molecular method, the cell culturing system is accurate and most used in the clinical arena, so it is regarded as the standard AST system. The most commonly employed AST process in the cell culturing system is the liquid microdilution method. This traditional AST system requires 18˜24 hours because the liquid microdilution method determines the minimum inhibitory concentration (MIC) of the relevant antibiotics by identifying a change in turbidity of culture wells. The turbidity is indirectly measured by optical density (OD) coming from cell growth, which is proportional to the concentration of the bacterial cells in the culture well. However, the OD evaluation is not sensitive to the bacterial cell population expansion when the concentration of the bacterial cells is conspicuously low. Thus, it needs 18-24 hours to accurately distinguish whether the bacterial cells grow or not under particular concentrations of antibiotics.

Compound	MIC ([1]; Escherichia coli, ATCC25922, 4 h, E. coli ATCC 25922, hydrogel device, images every hour for four hours, 37° C., read-out: minimum inhibitory concentration (MIC)) [µg/mL]	MIC ([2]; Staphylococcus aureus, ATCC29213, 4 h, S. aureus ATCC 29213, hydrogel device, images every hour for four hours, 37° C., read-out: minimum inhibitory concentration (MIC)) [µg/mL]	CLSI minimum inhibitory concentration (MIC) range (E. coli ATCC 25922) [µg/mL]	CLSI minimum inhibitory concentration (MIC) range (S. aureus ATCC 29213) [µg/mL]	concentration at which cells could not divide and showed filamentary growth ([1]; E. coli, optical microscopic images, FIG. 8 (a)) [µg/mL]	concentration at which bacterial cells could not divide or grow ([2]; S. aureus, optical microscopic images, FIG. 8 (b)) [µg/mL]	MIC [3] [µg/mL]	MIC [4] [µg/mL]
O=C(N[C@H](CO)[C@H](O)c1ccc([N+](=O)[O-])cc1)C(Cl)Cl [chloramphenicol]	8 (≈ 24.8 µM)	4 (≈ 12.4 µM)	2 to 8	2 to 8				
CC1(C)S[C@@H]2[C@H](NC(=O)[C@H](N)c3ccccc3)C(=O)N2[C@H]1C(=O)O [ampicillin]			2 to 8	0.5 to 2	≥ 2	≥ 2	64 (≈ 183 µM)	64 (≈ 183 µM)
